These results are taken from US20140349320A1, “Using Adaptive Immunity to Detect Drug Resistance” (The Trustees of the University of Pennsylvania, priority 2011, published 2014).

In assay [1] the test system is MTB strains (Beijing family, wild-type parent and rpoB H445D rifampicin-resistant isolate). Format: cell-based, Mycobacterium tuberculosis.
In assay [2] the test system is MTB strains (Haarlem family, wild-type parent and rpoB S450L rifampicin-resistant isolate). It is filed as cell-based, Mycobacterium tuberculosis.

Molecules are shown by their SMILES.

Turning to `CC[C@@H](CO)NCCN[C@@H](CC)CO` [ethambutol], the drug susceptibility entry in assay [1] and in assay [2] was “susceptible” in each case.
The MIC is the least concentration at which growth counts as inhibited. In the case of `NNC(=O)c1ccncc1` [isoniazid], in assay [1], the MIC was < 0.2 µg/mL and the drug susceptibility entry is listed as “susceptible”. In addition, in assay [2], the drug susceptibility result was “susceptible”.
Turning to `NC(=O)c1cnccn1` [pyrazinamide], the drug susceptibility result in assay [1] and in assay [2] was “susceptible” in each case.
